Source: patent US20240391931A1 (Bristol-Myers Squibb Company, priority 2021, published 2024)

Columns and labels:
EGFR WT = biological target: T1, EGFR WT (Homo sapiens, UniProt P00533); experiment: Enzymatic assay EGFR WT (method c); format: biochemical; settings: [EGFR WT]=2 nM, [ATP]=1 mM, [Peptide 22]=1 μM
T1 construct: purchased Thermo Fisher, Carlsbad, CA ERBB1 PR7295B
In short: (§1)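 Microfluidic mobility-shift kinase assay with Peptide 22 (1 μM) in HEPES pH 7.5, MnCl2, MgCl2, Tween 20, TCEP. HER2 WT 12.5 nM and HER2 YVMA 5 nM each used 25 μM ATP; EGFR WT 2 nM used 1 mM ATP. IC50 came from initial-velocity (0–3600 s) percent inhibition, fitted to a variable-slope model.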

EGFR = EGFR (Homo sapiens, UniProt P00533); experiment: EGFR signaling (pEGFR Tyr1068/total EGFR MSD) in A431 cells; format: cell-based; design: endogenous in cells; host or cells: A431, N87; settings: for EC50: A431 cells, read-out: A431 pEGFR EC50; for Selectivity A431 EC50/BT474 EC50: ratio A431 pEGFR EC50 to BT474 pHER2 EC50; for Selectivity A431 EC50/HEKYVMA EC50: ratio A431 pEGFR EC50 to HEK YVMA pHER2 EC50
Sequence of EGFR (P00533 25-1210): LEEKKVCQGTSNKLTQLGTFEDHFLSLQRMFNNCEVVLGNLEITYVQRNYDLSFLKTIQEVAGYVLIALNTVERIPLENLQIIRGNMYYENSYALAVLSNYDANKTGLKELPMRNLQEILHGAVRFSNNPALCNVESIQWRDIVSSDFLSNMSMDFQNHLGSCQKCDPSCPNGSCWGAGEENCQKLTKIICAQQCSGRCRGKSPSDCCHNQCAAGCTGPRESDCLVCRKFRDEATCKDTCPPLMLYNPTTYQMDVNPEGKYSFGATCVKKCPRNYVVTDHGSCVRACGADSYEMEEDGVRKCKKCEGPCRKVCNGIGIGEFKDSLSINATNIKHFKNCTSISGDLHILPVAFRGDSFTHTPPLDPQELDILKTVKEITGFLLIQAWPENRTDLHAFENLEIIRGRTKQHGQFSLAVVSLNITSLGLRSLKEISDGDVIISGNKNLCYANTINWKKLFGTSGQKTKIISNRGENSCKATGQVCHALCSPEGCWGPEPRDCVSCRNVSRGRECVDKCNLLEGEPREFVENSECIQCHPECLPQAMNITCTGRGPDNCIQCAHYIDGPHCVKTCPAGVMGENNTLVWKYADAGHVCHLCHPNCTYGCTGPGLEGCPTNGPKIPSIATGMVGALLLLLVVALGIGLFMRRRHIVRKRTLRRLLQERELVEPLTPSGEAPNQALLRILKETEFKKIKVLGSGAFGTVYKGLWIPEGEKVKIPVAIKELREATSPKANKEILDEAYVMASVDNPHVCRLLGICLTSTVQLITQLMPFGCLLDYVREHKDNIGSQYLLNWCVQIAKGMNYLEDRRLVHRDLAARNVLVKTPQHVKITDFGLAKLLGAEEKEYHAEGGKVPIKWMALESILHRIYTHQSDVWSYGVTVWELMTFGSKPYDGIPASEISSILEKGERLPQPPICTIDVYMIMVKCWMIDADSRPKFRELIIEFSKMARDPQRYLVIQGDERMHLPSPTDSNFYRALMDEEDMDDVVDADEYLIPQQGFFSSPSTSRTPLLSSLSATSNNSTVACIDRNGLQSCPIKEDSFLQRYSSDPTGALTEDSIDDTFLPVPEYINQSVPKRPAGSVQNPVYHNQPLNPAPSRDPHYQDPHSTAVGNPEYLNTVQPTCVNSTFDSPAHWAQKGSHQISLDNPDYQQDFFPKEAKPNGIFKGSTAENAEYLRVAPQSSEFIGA
In short: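 Serum-starved A431 cells were pretreated 1.5 h in 1% FBS with compound (0.005–10 μM, 0.1% DMSO), then stimulated with 100 ng/mL human EGF for 10 min. Lysate pEGFR Tyr1068 was measured by MSD and normalized to total EGFR as % DMSO control; EC50 from variable-slope sigmoidal fit.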

HER2YVMA = HER2YVMA (Homo sapiens, UniProt P04626, INS775YVMA); experiment: Enzymatic assay HER2YVMA (method b); format: biochemical; design: purchased Viva biotech, Shanghai, China custom purification; settings: [HER2YVMA]=5 nM, [ATP]=25 μM, [Peptide 22]=1 μM
Sequence of HER2YVMA (P04626 with tags, fused parts or gaps INS775YVMA): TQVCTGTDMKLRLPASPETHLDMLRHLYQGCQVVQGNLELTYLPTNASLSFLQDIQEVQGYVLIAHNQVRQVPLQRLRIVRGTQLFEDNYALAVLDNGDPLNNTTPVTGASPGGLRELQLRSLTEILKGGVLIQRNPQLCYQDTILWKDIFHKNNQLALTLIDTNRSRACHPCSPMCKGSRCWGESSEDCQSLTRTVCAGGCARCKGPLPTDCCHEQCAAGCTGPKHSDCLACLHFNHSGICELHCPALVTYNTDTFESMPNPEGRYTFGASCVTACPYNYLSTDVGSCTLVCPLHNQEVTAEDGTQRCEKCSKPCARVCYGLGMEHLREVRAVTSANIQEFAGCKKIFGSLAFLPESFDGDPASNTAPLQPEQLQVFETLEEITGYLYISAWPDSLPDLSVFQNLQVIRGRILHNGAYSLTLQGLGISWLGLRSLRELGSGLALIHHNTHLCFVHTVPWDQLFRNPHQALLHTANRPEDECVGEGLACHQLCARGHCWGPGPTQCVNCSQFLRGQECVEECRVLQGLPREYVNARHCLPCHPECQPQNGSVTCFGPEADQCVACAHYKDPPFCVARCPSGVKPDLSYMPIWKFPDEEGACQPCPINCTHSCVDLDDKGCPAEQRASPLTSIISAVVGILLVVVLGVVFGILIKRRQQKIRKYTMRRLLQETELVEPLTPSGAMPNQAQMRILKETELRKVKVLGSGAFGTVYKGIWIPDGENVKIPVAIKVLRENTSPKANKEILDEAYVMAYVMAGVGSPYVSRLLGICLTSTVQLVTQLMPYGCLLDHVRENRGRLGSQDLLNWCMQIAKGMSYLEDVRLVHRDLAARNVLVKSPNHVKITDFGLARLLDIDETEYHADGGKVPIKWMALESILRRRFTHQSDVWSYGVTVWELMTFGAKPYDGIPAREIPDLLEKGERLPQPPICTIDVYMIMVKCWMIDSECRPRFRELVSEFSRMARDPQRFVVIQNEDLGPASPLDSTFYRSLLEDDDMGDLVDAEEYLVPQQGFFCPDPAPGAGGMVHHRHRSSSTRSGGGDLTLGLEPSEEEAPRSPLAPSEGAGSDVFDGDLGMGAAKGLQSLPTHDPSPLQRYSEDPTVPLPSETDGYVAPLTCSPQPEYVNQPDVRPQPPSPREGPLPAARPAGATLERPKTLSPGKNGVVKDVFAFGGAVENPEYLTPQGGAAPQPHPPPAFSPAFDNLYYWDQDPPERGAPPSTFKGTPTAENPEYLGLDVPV
In short: as §1

T1 sequence (P00533 25-1210): as the sequence (P00533 25-1210) above

SMILES	IC50 (EGFR WT)	EC50 (EGFR)	Selectivity A431 EC50/BT474 EC50 (EGFR)	Selectivity A431 EC50/HEKYVMA EC50 (EGFR)	IC50 (HER2YVMA)
Cc1cc(Nc2ncnc3sc4c(c23)CCN(C(=O)/C=C/CN(C)C)CC4)ccc1Oc1ccn2ccnc2c1 [Compound 172, (E)-4-(Dimethylamino)-1-(4-((4-(imidazo[1,2-a]pyridin-7-yloxy)-3-methylphenyl)amino)-8,9-dihydro-5H-pyrimido[5′,4′:4,5]thieno[2,3-d]azepin-7(6H)-yl)but-2-en-1-one]	> 10 µM	1 to 10 µM	B (B: ≥ 20 and < 100)	C (C: ≥ 10 and < 20)	< 0.1 µM
COc1ccc(Oc2ccc(Nc3ncnc4sc5c(c34)CCN(C(=O)/C=C/CN(C)C)CC5)cc2C)cn1 [Compound 173, (E)-4-(Dimethylamino)-1-(4-((4-((6-methoxypyridin-3-yl)oxy)-3-methylphenyl)amino)-8,9-dihydro-5H-pyrimido[5′,4′:4,5]thieno[2,3-d]azepin-7(6H)-yl)but-2-en-1-one]	> 10 µM	1 to 10 µM	B (B: ≥ 20 and < 100)	C (C: ≥ 10 and < 20)	0.1 to 1 µM
Cc1ccc(Oc2ccc(Nc3ncnc4sc5c(c34)C(C)CN(C(=O)/C=C/CN3CCOCC3)C5)cc2C)cn1 (centres unmarked) [Compound 174, (E)-1-(5-Methyl-4-((3-methyl-4-((6-methylpyridin-3-yl)oxy)phenyl)amino)-5,6-dihydropyrido[4′,3′:4,5]thieno[2,3-d]pyrimidin-7(8H)-yl)-4-morpholinobut-2-en-1-one]	> 10 µM	0.1 to 1 µM	B (B: ≥ 20 and < 100)	C (C: ≥ 10 and < 20)	< 0.1 µM
Cc1ccc(Oc2ccc(Nc3ncnc4sc5c(c34)C(C)CN(C(=O)/C=C/CN(C)C(C)(C)C)C5)cc2C)cn1 (centres unmarked) [Compound 175]	> 10 µM	< 0.1 µM	C (C: ≥ 10 and < 20)	E (E: >1 and < 5)	< 0.1 µM
